Results from ChEMBL document CHEMBL5150047, “Novel bioactive hybrid Celecoxib-HDAC Inhibitor, induces apoptosis in human acute lymphoblastic leukemia cells” (Bioorg Med Chem, 2022).
Activity calls are given as the source filed them. The rule behind the calls is not given here.

How the values were obtained:
[1] = tested on: NALM-6; experiment: Antiproliferative activity against human NALM-6 cells assessed as reduction in cell viability incubated for 48 hrs by CCK8 assay; assay type: functional, cell-based; conditions: NALM-6, 48 h
[2] = tested on: Jurkat; experiment: Antiproliferative activity against human Jurkat cells assessed as reduction in cell viability incubated for 48 hrs by CCK8 assay; assay type: functional, cell-based
[3] = tested on: HL-60; experiment: Antiproliferative activity against human HL-60 cells assessed as reduction in cell viability incubated for 48 hrs by CCK8 assay; assay type: functional, cell-based; conditions: HL-60, 48 h
[4] = tested on: K562; experiment: Antiproliferative activity against human K562 cells assessed as reduction in cell viability incubated for 48 hrs by CCK8 assay; assay type: functional, cell-based; conditions: K562, 48 h
[5] = tested on: NALM-6; experiment: Potency index, ratio of celecoxib IC50 to test compound IC50 for antiproliferative activity against human NALM-6 cells assessed as reduction in cell viability incubated for 48 hrs by CCK8 assay; assay type: functional
[6] = tested on: NALM-6; experiment: Antiproliferative activity against human NALM-6 cells assessed as reduction in cell viability incubated for 24 hrs by CCK8 assay; assay type: functional, cell-based
[7] = tested on: L02; experiment: Cytotoxicity against human L02 cells assessed as reduction in cell viability by CCK8 assay; assay type: toxicity, cell-based
[8] = tested on: MCF-10A; experiment: Cytotoxicity against human MCF-10A cells assessed as reduction in cell viability by CCK8 assay; assay type: toxicity, cell-based
[9] = molecular target: Histone deacetylase; experiment: Inhibition of HDAC in human NALM-6 nuclear extract incubated for 48 hrs by fluorometric analysis; assay type: subcellular, Nucleus
[10] = tested on: NALM-6; experiment: Downregulation of HDAC2 expression in human NALM-6 cells incubated for 48 hrs by western blot analysis; assay type: functional, cell-based; conditions: dose 10-30 µM, DDE = dose-dependent effect
[11] = tested on: NALM-6; experiment: Induction of cell cycle arrest in human NALM-6 cells assessed as accumulation of cells at G2 phase at 30 uM incubated for 48 hrs by PI/RNase staining based flow cytometry; assay type: functional
[12] = tested on: NALM-6; experiment: Induction of cell cycle arrest in human NALM-6 cells assessed as reduction in proportion of cells at S phase at 30 uM incubated for 48 hrs by PI/RNase staining based flow cytometry; assay type: functional
[13] = tested on: NALM-6; experiment: Induction of apoptosis in human NALM-6 cells assessed as viable cells at 10 uM incubated for 48 hrs by AnnexinV-FITC/PI staining based flow cytometry (reference value: 97.98%); assay type: functional; conditions: read-out: Activity
[14] = tested on: NALM-6; experiment: Induction of apoptosis in human NALM-6 cells assessed as early apoptotic cells at 10 uM incubated for 48 hrs by AnnexinV-FITC/PI staining based flow cytometry (reference value: 1.09%); assay type: functional
[15] = tested on: NALM-6; experiment: Induction of apoptosis in human NALM-6 cells assessed as late apoptotic cells at 10 uM incubated for 48 hrs by AnnexinV-FITC/PI staining based flow cytometry (reference value: 0.92%); assay type: functional
[16] = tested on: NALM-6; experiment: Induction of apoptosis in human NALM-6 cells assessed as necrotic cells at 10 uM incubated for 48 hrs by AnnexinV-FITC/PI staining based flow cytometry (reference value: 0.01%); assay type: functional
[17] = tested on: NALM-6; experiment: Induction of apoptosis in human NALM-6 cells assessed as viable cells at 30 uM incubated for 48 hrs by AnnexinV-FITC/PI staining based flow cytometry (reference value: 97.98%); assay type: functional; conditions: read-out: Activity
[18] = tested on: NALM-6; experiment: Induction of apoptosis in human NALM-6 cells assessed as early apoptotic cells at 30 uM incubated for 48 hrs by AnnexinV-FITC/PI staining based flow cytometry (reference value: 1.09%); assay type: functional
[19] = tested on: NALM-6; experiment: Induction of apoptosis in human NALM-6 cells assessed as late apoptotic cells at 30 uM incubated for 48 hrs by AnnexinV-FITC/PI staining based flow cytometry (reference value: 0.92%); assay type: functional
[20] = tested on: NALM-6; experiment: Induction of apoptosis in human NALM-6 cells assessed as necrotic cells at 30 uM incubated for 48 hrs by AnnexinV-FITC/PI staining based flow cytometry (reference value: 0.01%); assay type: functional
[21] = tested on: NALM-6; experiment: Induction of apoptosis in human NALM-6 cells assessed as increase in cleaved PARP expression at 10 to 30 uM incubated for 48 hrs by western blot analysis; assay type: functional, cell-based; conditions: dose 10-30 µM
[22] = tested on: HUVEC; experiment: Cytotoxicity against human HUVEC cells assessed as reduction in cell viability by CCK8 assay; assay type: toxicity, cell-based
[23] = tested on: HUVEC; experiment: Cytotoxicity against human HUVEC cells assessed as reduction in cell viability up to 50 uM by CCK8 assay; assay type: toxicity, cell-based

| SMILES | IC50 [2] | IC50 [3] | IC50 [4] | IC50 [1] | further results |
| --- | --- | --- | --- | --- | --- |
| Cc1ccc(-c2cc(C(F)(F)F)nn2-c2ccc(S(=O)(=O)NC(=O)CCCC[Se]C#N)cc2)cc1 | > 100 µM | 59.8 µM | > 100 µM | > 100 µM | – |
| Cc1ccc(-c2cc(C(F)(F)F)nn2-c2ccc(S(=O)(=O)NC(=O)CCCCC[Se]C#N)cc2)cc1 | 12.6 µM | 26.8 µM | 11.7 µM | 9.95 µM | Ratio IC50 [5]: 2.8; Activity [6]: Active; Activity [7]: Non-Toxic; Activity [8]: Non-Toxic; IC50 [9]: 11.75 µM; inhibition [10]: Dde; Activity [11]: Active; Activity [12]: Active; viability at 10 µM [13]: 97.7%; Activity [14]: 1.53%; Activity [15]: 0.72%; Activity [16]: 0.09%; viability at 30 µM [17]: 85.8%; Activity [18]: 9.51%; Activity [19]: 4.17%; Activity [20]: 0.49%; Activity [21]: Active; Activity [22]: Non-Toxic |
| O=C(CCCCCCC(=O)Nc1ccccc1)NO [VORINOSTAT] | – | – | – | – | Activity [7]: Toxic; Activity [8]: Toxic; Activity [22]: Toxic |
| Cc1ccc(-c2cc(C(F)(F)F)nn2-c2ccc(S(=O)(=O)NC(=O)CCC[Se]C#N)cc2)cc1 | > 100 µM | > 100 µM | > 100 µM | > 100 µM | – |

Further lines, with some results ahead:

| IC50 [2] | IC50 [3] | IC50 [4] | SMILES | IC50 [1] | further results |
| --- | --- | --- | --- | --- | --- |
| 32.1 µM | 44.7 µM | 57.8 µM | Cc1ccc(-c2cc(C(F)(F)F)nn2-c2ccc(S(N)(=O)=O)cc2)cc1 [CELECOXIB] | 28.6 µM | Activity [23]: Non-Toxic |
| 33.3 µM | 30 µM | 44.1 µM | Cc1ccc(-c2cc(C(F)(F)F)nn2-c2ccc(S(=O)(=O)NC(=O)C[Se]C#N)cc2)cc1 | 34.9 µM | – |
| > 100 µM | 62.5 µM | > 100 µM | Cc1ccc(-c2cc(C(F)(F)F)nn2-c2ccc(S(=O)(=O)NC(=O)CC[Se]C#N)cc2)cc1 | > 100 µM | – |
